Experimental data taken from patent publication US20220274954A1, “SUBSTITUTED N-PHENYL-N-AMINOUARCILS AND SALTS THEREOF AND USE THEREOF AS HERBICIDAL AGENTS” (Bayer Aktiengesellschaft, priority 2019, published 2022).

How the values were obtained:
Assay type in all cases: in vivo
Abutilon theophrasti = experiment: Post-emergence herbicidal action; conditions: for pest or weed control at 5 g/ha / pest or weed control at 20 g/ha: Abutilon theophrasti, 504 h, read-out: Abutilon theophrasti (efficacy in %)
Description: (§1) Seeds of monocotyledonous and dicotyledonous weeds and crop plants were placed in sandy loam in plastic or wood-fiber pots, covered with soil and cultivated in a greenhouse under controlled growth conditions. 2 to 3 weeks after sowing, the test plants were treated at the one-leaf stage. The compounds of the invention, formulated in the form of wettable powders (WP) or as emulsion concentrates (EC), were then sprayed onto the green parts of the plants as aqueous suspension or emulsion with addition of 0.5% additive at a water application rate of […] (converted). After the test plants had been kept in the greenhouse under optimum growth conditions for about 3 weeks, the activity of the preparations was rated visually in comparison to untreated controls. For example, 100% activity=the plants have died, 0% activity=like control plants. Tables A1 to A14 below show the effects of selected compounds of the general formula (I) according to Tables I.1 to I.34 on various harmful plants and at an application rate corresponding to 20 g/ha and less, which were obtained by the experimental procedure mentioned above.

Alopecurus myosuroides = experiment: Post-emergence herbicidal action
Description: as §1

Amaranthus retroflexus = experiment: Post-emergence herbicidal action; conditions: for pest or weed control at 5 g/ha / pest or weed control at 20 g/ha: Amaranthus retroflexus, 504 h, read-out: Amaranthus retroflexus (efficacy in %)
Description: as §1

Avena fatua = experiment: Post-emergence herbicidal action; conditions: application rate 20 g/ha
Description: as §1

Digitaria sanguinalis = experiment: Post-emergence herbicidal action; conditions: 504 h, read-out: Digitaria sanguinalis (efficacy in %); for pest or weed control at 5 g/ha: application rate 5 g/ha; for pest or weed control at 20 g/ha: application rate 20 g/ha
Description: as §1

Echinochloa crus-galli = experiment: Post-emergence herbicidal action; conditions: for pest or weed control at 5 g/ha / pest or weed control at 20 g/ha: Echinochloa crus-galli, 504 h, read-out: Echinochloa crus-galli (efficacy in %)
Description: as §1

Lolium rigidum = experiment: Post-emergence herbicidal action; conditions: application rate 20 g/ha
Description: as §1

Matricaria inodora = experiment: Post-emergence herbicidal action; conditions: for pest or weed control at 5 g/ha / pest or weed control at 20 g/ha: Tripleurospermum inodorum, 504 h, read-out: Matricaria inodora (efficacy in %)
Description: as §1

Pharbitis purpurea = experiment: Post-emergence herbicidal action; conditions: for pest or weed control at 5 g/ha / pest or weed control at 20 g/ha: Ipomoea purpurea, 504 h, read-out: Pharbitis purpurea (efficacy in %)
Description: as §1

Polygonum convolvulus = experiment: Post-emergence herbicidal action; conditions: Fallopia convolvulus, 504 h, read-out: Polygonum convolvulus (efficacy in %); for pest or weed control at 5 g/ha: application rate 5 g/ha; for pest or weed control at 20 g/ha: application rate 20 g/ha
Description: as §1

Setaria viridis = experiment: Post-emergence herbicidal action; conditions: 504 h, read-out: Setaria viridis (efficacy in %); for pest or weed control at 5 g/ha: application rate 5 g/ha; for pest or weed control at 20 g/ha: application rate 20 g/ha
Description: as §1

Veronica persica = experiment: Post-emergence herbicidal action; conditions: for pest or weed control at 5 g/ha / pest or weed control at 20 g/ha: Veronica persica, 504 h, read-out: Veronica persica (efficacy in %)
Description: as §1

Viola tricolor = experiment: Post-emergence herbicidal action; conditions: for pest or weed control at 5 g/ha / pest or weed control at 20 g/ha: Viola tricolor, 504 h, read-out: Viola tricolor (efficacy in %)
Description: as §1

Oryza sativa = experiment: Post-emergence crop plant compatibility
Description: as §1, with “plants.” for “plants. Tables A1 to A14 below show the effects of selected compounds of the general formula (I) according to Tables I.1 to I.34 on various harmful plants and at an application rate corresponding to 20 g/ha and less, which were obtained by the experimental procedure mentioned above.”
(§2) Here, the observed effects on selected crop plants are stated in comparison to the untreated controls (values in %).

Triticum aestivum = experiment: Post-emergence crop plant compatibility
Description: as §1, with “plants.” for “plants. Tables A1 to A14 below show the effects of selected compounds of the general formula (I) according to Tables I.1 to I.34 on various harmful plants and at an application rate corresponding to 20 g/ha and less, which were obtained by the experimental procedure mentioned above.”
as §2

Zea mays = experiment: Post-emergence crop plant compatibility
Description: as §1, with “plants.” for “plants. Tables A1 to A14 below show the effects of selected compounds of the general formula (I) according to Tables I.1 to I.34 on various harmful plants and at an application rate corresponding to 20 g/ha and less, which were obtained by the experimental procedure mentioned above.”
as §2

Hordeum murinum = experiment: Post-emergence herbicidal action
Description: as §1

Stellaria media = experiment: Post-emergence herbicidal action; conditions: application rate 5 g/ha
Description: as §1

Glycine max = experiment: Post-emergence crop plant compatibility; conditions: application rate 5 g/ha
Description: as §1, with “plants.” for “plants. Tables A1 to A14 below show the effects of selected compounds of the general formula (I) according to Tables I.1 to I.34 on various harmful plants and at an application rate corresponding to 20 g/ha and less, which were obtained by the experimental procedure mentioned above.”
as §2

CCOCCOC(=O)COc1ncccc1Sc1cc(-n2c(=O)cc(C(F)(F)F)n(N)c2=O)c(F)cc1Cl [I.1-2, 2-Ethoxyethyl {[3-({5-[3-amino-2,6-dioxo-4-(trifluoromethyl)-3,6-dihydropyrimidin-1(2H)-yl]-2-chloro-4-fluorophenyl}sulfanyl)pyridin-2-yl]oxy}acetate]
100%: pest or weed control at 5 g/ha (Abutilon theophrasti; application rate 5 g/ha) | pest or weed control at 20 g/ha (Abutilon theophrasti; application rate 20 g/ha) | Alopecurus myosuroides (efficacy in %) (Alopecurus myosuroides; application rate 20 g/ha) | pest or weed control at 5 g/ha (Amaranthus retroflexus; application rate 5 g/ha) | pest or weed control at 20 g/ha (Amaranthus retroflexus; application rate 20 g/ha) | pest or weed control at 5 g/ha (Digitaria sanguinalis) | pest or weed control at 20 g/ha (Digitaria sanguinalis) | pest or weed control at 20 g/ha (Echinochloa crus-galli; application rate 20 g/ha) | pest or weed control at 5 g/ha (Matricaria inodora; application rate 5 g/ha) | pest or weed control at 20 g/ha (Matricaria inodora; application rate 20 g/ha) | pest or weed control at 5 g/ha (Pharbitis purpurea; application rate 5 g/ha) | pest or weed control at 20 g/ha (Pharbitis purpurea; application rate 20 g/ha) | pest or weed control at 5 g/ha (Polygonum convolvulus) | pest or weed control at 20 g/ha (Polygonum convolvulus) | pest or weed control at 5 g/ha (Setaria viridis) | pest or weed control at 20 g/ha (Setaria viridis) | pest or weed control at 5 g/ha (Veronica persica; application rate 5 g/ha) | pest or weed control at 20 g/ha (Veronica persica; application rate 20 g/ha) | pest or weed control at 5 g/ha (Viola tricolor; application rate 5 g/ha) | pest or weed control at 20 g/ha (Viola tricolor; application rate 20 g/ha)
90%: pest or weed control at 5 g/ha (Echinochloa crus-galli; application rate 5 g/ha)
10%: Oryza sativa (efficacy in %) (Oryza sativa; application rate 5 g/ha)
80%: Avena fatua (efficacy in %) (Avena fatua) | Lolium rigidum (efficacy in %) (Lolium rigidum)
0%: Oryza sativa (efficacy in %) (Oryza sativa; application rate 1.25 g/ha) | Triticum aestivum (efficacy in %) (Triticum aestivum; application rate 1.25 g/ha)

COCCOCCOC(=O)COc1ncccc1Sc1cc(-n2c(=O)cc(C(F)(F)F)n(N)c2=O)c(F)cc1Cl [I.1-23, 2-(2-Methoxyethoxy)ethyl {[3-({5-[3-amino-2,6-dioxo-4-(trifluoromethyl)-3,6-dihydropyrimidin-1(2H)-yl]-2-chloro-4-fluorophenyl}sulfanyl)pyridin-2-yl]oxy}acetate]
80%: pest or weed control at 5 g/ha (Echinochloa crus-galli; application rate 5 g/ha) | Lolium rigidum (efficacy in %) (Lolium rigidum) | pest or weed control at 5 g/ha (Matricaria inodora; application rate 5 g/ha) | pest or weed control at 5 g/ha (Pharbitis purpurea; application rate 5 g/ha)
100%: pest or weed control at 5 g/ha (Abutilon theophrasti; application rate 5 g/ha) | pest or weed control at 20 g/ha (Abutilon theophrasti; application rate 20 g/ha) | pest or weed control at 5 g/ha (Amaranthus retroflexus; application rate 5 g/ha) | pest or weed control at 20 g/ha (Amaranthus retroflexus; application rate 20 g/ha) | Avena fatua (efficacy in %) (Avena fatua) | pest or weed control at 5 g/ha (Digitaria sanguinalis) | pest or weed control at 20 g/ha (Digitaria sanguinalis) | pest or weed control at 20 g/ha (Echinochloa crus-galli; application rate 20 g/ha) | pest or weed control at 20 g/ha (Matricaria inodora; application rate 20 g/ha) | pest or weed control at 20 g/ha (Pharbitis purpurea; application rate 20 g/ha) | pest or weed control at 5 g/ha (Polygonum convolvulus) | pest or weed control at 20 g/ha (Polygonum convolvulus) | pest or weed control at 5 g/ha (Setaria viridis) | pest or weed control at 20 g/ha (Setaria viridis) | pest or weed control at 5 g/ha (Veronica persica; application rate 5 g/ha) | pest or weed control at 20 g/ha (Veronica persica; application rate 20 g/ha) | pest or weed control at 5 g/ha (Viola tricolor; application rate 5 g/ha) | pest or weed control at 20 g/ha (Viola tricolor; application rate 20 g/ha)
90%: Alopecurus myosuroides (efficacy in %) (Alopecurus myosuroides; application rate 20 g/ha)
20%: Oryza sativa (efficacy in %) (Oryza sativa; application rate 1.25 g/ha) | Triticum aestivum (efficacy in %) (Triticum aestivum; application rate 1.25 g/ha) | Zea mays (efficacy in %) (Zea mays; application rate 1.25 g/ha)

COC(=O)COc1ncccc1Sc1cc(-n2c(=O)cc(C(F)(F)F)n(N)c2=O)c(F)cc1Cl [I.1-441, Methyl {[3-({5-[3-amino-2,6-dioxo-4-(trifluoromethyl)-3,6-dihydropyrimidin-1(2H)-yl]-2-chloro-4-fluorophenyl}sulfanyl)pyridin-2-yl]oxy}acetate]
100%: pest or weed control at 5 g/ha (Abutilon theophrasti; application rate 5 g/ha) | pest or weed control at 20 g/ha (Abutilon theophrasti; application rate 20 g/ha) | pest or weed control at 5 g/ha (Amaranthus retroflexus; application rate 5 g/ha) | pest or weed control at 20 g/ha (Amaranthus retroflexus; application rate 20 g/ha) | pest or weed control at 20 g/ha (Digitaria sanguinalis) | pest or weed control at 20 g/ha (Echinochloa crus-galli; application rate 20 g/ha) | Hordeum murinum (efficacy in %) (Hordeum murinum; application rate 20 g/ha) | pest or weed control at 5 g/ha (Matricaria inodora; application rate 5 g/ha) | pest or weed control at 20 g/ha (Matricaria inodora; application rate 20 g/ha) | pest or weed control at 5 g/ha (Pharbitis purpurea; application rate 5 g/ha) | pest or weed control at 20 g/ha (Pharbitis purpurea; application rate 20 g/ha) | pest or weed control at 20 g/ha (Polygonum convolvulus) | pest or weed control at 5 g/ha (Setaria viridis) | pest or weed control at 20 g/ha (Setaria viridis) | Stellaria media (efficacy in %) (Stellaria media) | pest or weed control at 5 g/ha (Veronica persica; application rate 5 g/ha) | pest or weed control at 20 g/ha (Veronica persica; application rate 20 g/ha) | pest or weed control at 5 g/ha (Viola tricolor; application rate 5 g/ha) | pest or weed control at 20 g/ha (Viola tricolor; application rate 20 g/ha)
90%: pest or weed control at 5 g/ha (Digitaria sanguinalis)
10%: Oryza sativa (efficacy in %) (Oryza sativa; application rate 1.25 g/ha)
20%: Glycine max (efficacy in %) (Glycine max) | Oryza sativa (efficacy in %) (Oryza sativa; application rate 5 g/ha) | Triticum aestivum (efficacy in %) (Triticum aestivum; application rate 1.25 g/ha) | Zea mays (efficacy in %) (Zea mays; application rate 1.25 g/ha)
80%: pest or weed control at 5 g/ha (Echinochloa crus-galli; application rate 5 g/ha) | Hordeum murinum (efficacy in %) (Hordeum murinum; application rate 5 g/ha) | Lolium rigidum (efficacy in %) (Lolium rigidum) | pest or weed control at 5 g/ha (Polygonum convolvulus)

C=CCOC(=O)COc1ncccc1Sc1cc(-n2c(=O)cc(C(F)(F)F)n(N)c2=O)c(F)cc1Cl [I.1-471]
0%: Oryza sativa (efficacy in %) (Oryza sativa; application rate 1.25 g/ha)
80%: Alopecurus myosuroides (efficacy in %) (Alopecurus myosuroides; application rate 5 g/ha) | Avena fatua (efficacy in %) (Avena fatua) | Lolium rigidum (efficacy in %) (Lolium rigidum)
100%: Abutilon theophrasti (efficacy in %) (Abutilon theophrasti; application rate 5 g/ha) | Abutilon theophrasti (efficacy in %) (Abutilon theophrasti; application rate 20 g/ha) | Alopecurus myosuroides (efficacy in %) (Alopecurus myosuroides; application rate 20 g/ha) | Amaranthus retroflexus (efficacy in %) (Amaranthus retroflexus; application rate 5 g/ha) | Amaranthus retroflexus (efficacy in %) (Amaranthus retroflexus; application rate 20 g/ha) | Echinochloa crus-galli (efficacy in %) (Echinochloa crus-galli; application rate 20 g/ha) | Matricaria inodora (efficacy in %) (Matricaria inodora; application rate 5 g/ha) | Matricaria inodora (efficacy in %) (Matricaria inodora; application rate 20 g/ha) | Pharbitis purpurea (efficacy in %) (Pharbitis purpurea; application rate 5 g/ha) | Pharbitis purpurea (efficacy in %) (Pharbitis purpurea; application rate 20 g/ha) | Veronica persica (efficacy in %) (Veronica persica; application rate 5 g/ha) | Veronica persica (efficacy in %) (Veronica persica; application rate 20 g/ha) | Viola tricolor (efficacy in %) (Viola tricolor; application rate 5 g/ha) | Viola tricolor (efficacy in %) (Viola tricolor; application rate 20 g/ha)
90%: Echinochloa crus-galli (efficacy in %) (Echinochloa crus-galli; application rate 5 g/ha)
20%: Triticum aestivum (efficacy in %) (Triticum aestivum; application rate 5 g/ha) | Zea mays (efficacy in %) (Zea mays; application rate 5 g/ha)
10%: Triticum aestivum (efficacy in %) (Triticum aestivum; application rate 1.25 g/ha)
